Laboratory results from ChEMBL document CHEMBL3392952, “Structure guided lead generation for M. tuberculosis thymidylate kinase (Mtb TMK): discovery of 3-cyanopyridone and 1,6-naphthyridin-2-one as potent inhibitors” (J Med Chem, 2015).
Converted amounts (≈) assume the structure as drawn. The source made the active and inactive calls. The rule behind the calls is not given here.

Experiments:
Thymidylate kinase = molecular target: T1, Thymidylate kinase (Mycobacterium tuberculosis, UniProt P9WKE1); assay: Inhibition of Mycobacterium tuberculosis thymidylate kinase activity by pyruvate kinase-lactate dehydrogenase coupled assay
T1 sequence (P9WKE1 whole entry): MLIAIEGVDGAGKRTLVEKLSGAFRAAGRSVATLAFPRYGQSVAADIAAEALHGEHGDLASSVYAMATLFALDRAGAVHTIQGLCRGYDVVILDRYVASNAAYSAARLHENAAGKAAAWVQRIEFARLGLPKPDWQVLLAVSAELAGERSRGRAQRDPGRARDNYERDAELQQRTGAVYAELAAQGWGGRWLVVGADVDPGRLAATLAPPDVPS

[1] = test system: Mycobacterium tuberculosis; assay: Antitubercular activity against Mycobacterium tuberculosis assessed as growth inhibition […] by standard microdilution method; type: functional
[2] = Dissociation constant, pKa of the compound; type: physicochemical
Staphylococcus aureus = assay: Inhibition of Staphylococcus aureus thymidylate kinase
Haemophilus influenzae = assay: Inhibition of Haemophilus influenza thymidylate kinase
Escherichia coli = assay: Inhibition of Escherichia coli thymidylate kinase
[3] = molecular target: T2, Thymidylate kinase (Homo sapiens) (UniProt P23919); assay: Inhibition of human thymidylate kinase assessed as […] up to 200 uM
T2 sequence (whole entry): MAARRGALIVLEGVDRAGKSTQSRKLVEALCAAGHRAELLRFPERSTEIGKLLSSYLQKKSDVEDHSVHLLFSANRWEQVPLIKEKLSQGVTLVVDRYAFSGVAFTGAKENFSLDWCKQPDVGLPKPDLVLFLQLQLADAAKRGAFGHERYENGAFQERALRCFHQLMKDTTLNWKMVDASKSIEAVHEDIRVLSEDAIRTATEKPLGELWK

`CC(C)c1ccc(COc2cccc(-c3cc(-c4ccc(C(=O)O)cc4)c(C#N)c(=O)[nH]3)c2)cc1` gave an IC50 (Thymidylate kinase) of 6 nM.
`COc1cccc(-c2cc(-c3cccnc3)c(C#N)c(=O)[nH]2)c1` showed an IC50 (Thymidylate kinase) of 2630 nM.
Work on `N#Cc1c(-c2ccc(C(=O)O)cc2)c2c([nH]c1=O)-c1cccc(-c3cn[nH]c3)c1CC2` yielded an MIC [1] greater than 32 µg/mL, an IC50 (Thymidylate kinase) of 2 nM and a pKa [2] of 4.4.
In the case of `CSc1cc(-c2ccccc2)nc(O)c1C#N`, the IC50 (Thymidylate kinase) is reported as 1900 nM.
With `C[S+]([O-])c1cc(-c2cccc(Br)c2)[nH]c(=O)c1C#N` (stereo not given) the Activity (Staphylococcus aureus) was “inactive”, the MIC [1] was 4 µg/mL (≈ 11.9 µM) and the Activity (Haemophilus influenzae) was “inactive”. The IC50 (Thymidylate kinase) was 140 nM and the Activity (Escherichia coli) was “inactive”.
Molecule `CC(C)c1ccc(COc2cccc(-c3cc([S+](C)[O-])c(C#N)c(=O)[nH]3)c2)cc1` (stereo not given) has an MIC [1] of 2 µg/mL (≈ 4.92 µM) and an IC50 (Thymidylate kinase) of 32 nM.
Molecule `Cc1nccc2nc(O)c(C#N)cc12` has an IC50 (Thymidylate kinase) of 634000 nM.
Molecule `COc1cccc2c1CCc1c-2[nH]c(=O)c(C#N)c1-c1ccc(C(=O)O)cc1` has an MIC [1] greater than 32 µg/mL, an IC50 (Thymidylate kinase) of 5 nM and a pKa [2] of 4.4.
`N#Cc1c(-c2ccc(C(=O)NS(=O)(=O)c3ccccc3)cc2)c2c([nH]c1=O)-c1ccccc1OC2` showed an MIC [1] greater than 32 µg/mL, an IC50 (Thymidylate kinase) of 2 nM and a pKa [2] of 5.
Work on `COc1cccc(-c2cc(-c3cccc(C(=O)O)c3)c(C#N)c(=O)[nH]2)c1` yielded an IC50 (Thymidylate kinase) of 2730 nM.
`CCCc1cc2[nH]c(=O)ccc2c(C)n1` showed an IC50 (Thymidylate kinase) of 590000 nM.
With `CCc1cc2[nH]c(=O)c(C#N)c(-c3ccccc3)c2c(C)n1` the MIC [1] was greater than 32 µg/mL and the IC50 (Thymidylate kinase) was 350 nM.
Work on `CCc1cc2[nH]c(=O)c(C#N)c(-c3ccc(NS(C)(=O)=O)cc3)c2c(C)n1` yielded an MIC [1] greater than 32 µg/mL and an IC50 (Thymidylate kinase) of 200 nM.
For `CSc1cc(-c2cccc(Cl)c2)[nH]c(=O)c1C#N`, the IC50 (Thymidylate kinase) was 1900 nM.
Work on `C[S+]([O-])c1cc(-c2cccs2)[nH]c(=O)c1C#N` (stereo not given) yielded an MIC [1] of 12 µg/mL (≈ 45.4 µM) and an IC50 (Thymidylate kinase) of 820 nM.
`CC(C)CCOc1cccc(-c2cc([S+](C)[O-])c(C#N)c(=O)[nH]2)c1` (stereo not given) gave an MIC [1] of 4 µg/mL (≈ 11.6 µM) and an IC50 (Thymidylate kinase) of 330 nM.
Work on `CCNC(=O)Nc1ccc(-c2c3c([nH]c(=O)c2C#N)-c2cccc(OC)c2CC3)cc1` yielded an MIC [1] greater than 32 µg/mL and an IC50 (Thymidylate kinase) of 17 nM.
`CS(=O)(=O)c1cc(-c2cccc(OCc3cccc(Cl)c3)c2)[nH]c(=O)c1C#N` showed an MIC [1] of 4 µg/mL (≈ 9.64 µM) and an IC50 (Thymidylate kinase) of 22 nM.
`CS(=O)(=O)c1cc(-c2cccc(Br)c2)[nH]c(=O)c1` showed an MIC [1] greater than 32 µg/mL and an IC50 (Thymidylate kinase) greater than 25000 nM.
`COc1cccc(-c2nc(SC)c(C#N)c(=O)[nH]2)c1` showed an IC50 (Thymidylate kinase) of 8000 nM.
`COc1cccc(-c2cc(-c3ccc(C(=O)O)cc3)c(C#N)c(=O)[nH]2)c1` gave an IC50 (Thymidylate kinase) of 420 nM.
`CS(=O)(=O)c1c2c([nH]c(=O)c1C#N)-c1ccccc1OC2` gave an MIC [1] of 32 µg/mL (≈ 106 µM) and an IC50 (Thymidylate kinase) of 30000 nM.
In the case of `CSc1cc(-c2cccc(Cl)c2)[nH]c(=O)c1C(N)=O`, the IC50 (Thymidylate kinase) is reported as 14300 nM.
For `COc1ccccc1-c1cc(SC)c(C#N)c(=O)[nH]1`, the IC50 (Thymidylate kinase) was greater than 50000 nM.
`CCc1cc2[nH]c(=O)c(C)c(C)c2c(CC)n1` gave an IC50 (Thymidylate kinase) of 133000 nM.
For `CCCc1cc2[nH]c(=O)c(C#N)c(-c3ccccc3)c2c(C)n1`, the MIC [1] was greater than 32 µg/mL and the IC50 (Thymidylate kinase) was 1000 nM.
Work on `CS(=O)(=O)c1cc(-c2cccc(Br)c2)[nH]c(=O)c1C#N` yielded an MIC [1] of 8 µg/mL (≈ 22.7 µM) and an IC50 (Thymidylate kinase) of 100 nM.
Work on `N#Cc1c(-c2ccc(C(=O)O)cc2)c2c([nH]c1=O)-c1ccccc1CC2` yielded an IC50 (Thymidylate kinase) of 6 nM.
Work on `COc1ccc(-c2cc(SC)c(C#N)c(=O)[nH]2)cc1` yielded an IC50 (Thymidylate kinase) of 7700 nM.
With `CS(=O)(=O)NC(=O)c1ccc(-c2c3c([nH]c(=O)c2C#N)-c2ccccc2OC3)cc1` the MIC [1] was greater than 32 µg/mL, the IC50 (Thymidylate kinase) was 5 nM and the Activity [3] was “inactive”. It also gave a pKa [2] of 3.9.
For `COc1cccc(-c2cc(SC)c(C#N)c(=O)[nH]2)c1`, the IC50 (Thymidylate kinase) was 1500 nM and the Activity [3] was “inactive”.
Work on `CCCc1cc2[nH]c(=O)c(C#N)c(-c3ccc(NS(C)(=O)=O)cc3)c2c(C)n1` yielded an MIC [1] greater than 32 µg/mL and an IC50 (Thymidylate kinase) of 2100 nM.
With `CCNC(=O)Nc1ccc(-c2cc(-c3cccc(OC)c3)[nH]c(=O)c2C#N)cc1` the IC50 (Thymidylate kinase) was 250 nM and the Activity [3] was “inactive”.
Work on `CSc1cc(-c2cccs2)[nH]c(=O)c1C#N` yielded an IC50 (Thymidylate kinase) of 3600 nM.
In the case of `COc1cccc(-c2cc(-c3ccc(C(=O)O)cc3)c(C)c(=O)[nH]2)c1`, the IC50 (Thymidylate kinase) is reported as 1200 nM.
With `N#Cc1c(-c2ccc(C(=O)O)cc2)c2c([nH]c1=O)-c1cccc(O)c1CC2` the MIC [1] was greater than 32 µg/mL, the IC50 (Thymidylate kinase) was 3 nM and the Activity [3] was “inactive”. For the same molecule, the pKa [2] was 4.4.
For `C[S+]([O-])c1cc(-c2cccc(OC(F)(F)F)c2)[nH]c(=O)c1C#N` (stereo not given), the Activity (Staphylococcus aureus) was “inactive”, the MIC [1] was 8 µg/mL (≈ 23.4 µM) and the Activity (Haemophilus influenzae) was “inactive”. The IC50 (Thymidylate kinase) was 240 nM, the Activity (Escherichia coli) was “inactive” and the Activity [3] was “inactive”.
`CSc1cc(-c2ccccn2)[nH]c(=O)c1C#N` gave an IC50 (Thymidylate kinase) of 18000 nM.
`COc1cccc(-c2cc(-c3ccc(N)cc3)c(C#N)c(=O)[nH]2)c1` showed an IC50 (Thymidylate kinase) of 1010 nM.
Molecule `COc1cccc(-c2cc(-c3ccc(NC(C)=O)cc3)c(C#N)c(=O)[nH]2)c1` has an IC50 (Thymidylate kinase) of 430 nM.
With `CSc1cc(-c2cccs2)oc(=O)c1C#N` the IC50 (Thymidylate kinase) was greater than 50000 nM.
`COc1cccc(-c2cc(-c3cccc(N)c3)c(C#N)c(=O)[nH]2)c1` gave an IC50 (Thymidylate kinase) of 1200 nM.
Molecule `CC(C)c1ccc(COc2cccc3c2CCc2c-3[nH]c(=O)c(C#N)c2-c2ccc(C(=O)O)cc2)cc1` has an MIC [1] greater than 32 µg/mL, an IC50 (Thymidylate kinase) of 1 nM and a pKa [2] of 4.4.
